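Dose response: 5 concentrations. Exposure: 48 h. Format: 96-well plates. Endpoint: linear interpolation; highest concentration if not reached. GI50 marks 50% less growth.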 Calls of active or inactive are those of the source. Cut-off read from the data, not from the text of the source: active = GI50 up to about 1.1 µM and inactive = higher.
What was measured:
Test in all cases: NCI anticancer screen, dose series, 48 h
BT-549 = test system: BT-549
NCI-H226 = test system: NCI-H226
SN12C = test system: SN12C
NCI-H460 = test system: NCI-H460
A498 = test system: A498
SF-539 = test system: SF-539
HCT-15 = test system: HCT-15
SK-MEL-2 = test system: SK-MEL-2
SF-268 = test system: SF-268
ACHN = test system: ACHN
HCC 2998 = test system: HCC 2998
RPMI-8226 = test system: RPMI-8226
UACC-257 = test system: UACC-257
SNB-75 = test system: SNB-75
SR = test system: SR
TK-10 = test system: TK-10
MDA-N = test system: MDA-N
COLO 205 = test system: COLO 205
HL-60 = test system: HL-60

Row | Compound | GI50 (BT-549) | GI50 (NCI-H226) | GI50 (SN12C) | GI50 (NCI-H460) | GI50 (A498) | GI50 (SF-539) | GI50 (HCT-15) | GI50 (SK-MEL-2) | GI50 (SF-268) | GI50 (ACHN) | GI50 (HCC 2998) | GI50 (RPMI-8226) | GI50 (UACC-257) | GI50 (SNB-75) | GI50 (SR) | GI50 (TK-10) | GI50 (MDA-N) | GI50 (COLO 205) | GI50 (HL-60)
1 | S=c1[nH]nc(Cn2c3ccc(Br)cc3c3nc4ccccc4nc32)n1C1CCCCC1 | 52.2 µM (inactive) | 20.5 µM (inactive) | 25 µM (inactive) | 20.2 µM (inactive) | 20.5 µM (inactive) | 18.6 µM (inactive) | 22 µM | 23.1 µM (inactive) | 51.6 µM (inactive) | 29.4 µM (inactive) | 16.1 µM (inactive) | 17.7 µM (inactive) | 31.6 µM (inactive) | 52.2 µM (inactive) | 8.13 µM (inactive) | > 47.8 µM (inactive) | 37.5 µM (inactive) |  | 
2 | N#Cc1c(N)[nH]c(=S)c(C#N)c1-c1cccc(Cl)c1 | 39.5 µM (inactive) | 19.9 µM (inactive) | 20.4 µM (inactive) | 32.5 µM (inactive) | 30.1 µM (inactive) | 49.2 µM (inactive) | 41.1 µM | 20.3 µM (inactive) | 21.8 µM (inactive) | 61.1 µM (inactive) | 15.6 µM (inactive) | 23.8 µM (inactive) | 36.3 µM (inactive) |  | 18.6 µM (inactive) | 65.2 µM (inactive) | 18.2 µM (inactive) | 15.2 µM (inactive) | 23.2 µM (inactive)
3 | O=C(NN=C(c1ccccc1)c1ccccc1)/C(O)=C/C(=O)c1ccc(Cl)cc1 | 38.1 µM (inactive) | 41.2 µM (inactive) | 27.9 µM (inactive) | 5.5 µM (inactive) | 16.5 µM (inactive) | 26.4 µM (inactive) | 24.7 µM | 29 µM (inactive) | 36.9 µM (inactive) | 37.4 µM (inactive) | 39.5 µM (inactive) |  | 37.3 µM (inactive) | 33 µM (inactive) | 39.2 µM (inactive) | 48.5 µM (inactive) | 40.5 µM (inactive) | 19.9 µM (inactive) | 
4 | CCN(CC)C(=O)N[C@@H](CC(C)C)C(=O)NC | > 100 µM (inactive) |  | > 100 µM (inactive) | > 100 µM (inactive) | > 100 µM (inactive) |  | > 100 µM | > 100 µM (inactive) | > 100 µM (inactive) | > 100 µM (inactive) | > 100 µM (inactive) | > 100 µM (inactive) |  | > 100 µM (inactive) | > 100 µM (inactive) |  | > 100 µM (inactive) | > 100 µM (inactive) | 43.3 µM (inactive)
5 | CN(C)c1ccc(C(c2ccc(Cl)cc2)c2ccc(N(C)C)cc2)cc1 | 54.8 µM (inactive) |  | > 100 µM (inactive) | > 100 µM (inactive) | > 100 µM (inactive) | > 100 µM (inactive) | > 100 µM | > 100 µM (inactive) | > 100 µM (inactive) | > 100 µM (inactive) | 69 µM (inactive) | 30.1 µM (inactive) | 60.1 µM (inactive) | > 100 µM (inactive) | 57.5 µM (inactive) | > 100 µM (inactive) | 82.8 µM (inactive) | 34.7 µM (inactive) | > 100 µM (inactive)
6 | CN1C(=O)C(O)CC1c1ccccc1F (stereo not given) | > 100 µM (inactive) | > 100 µM (inactive) | > 100 µM (inactive) | > 100 µM (inactive) | > 100 µM (inactive) | > 100 µM (inactive) | > 100 µM | > 100 µM (inactive) |  | > 100 µM (inactive) | > 100 µM (inactive) | > 100 µM (inactive) | > 100 µM (inactive) | > 100 µM (inactive) | > 100 µM (inactive) |  | > 100 µM (inactive) | > 100 µM (inactive) | > 100 µM (inactive)
7 | CC(C)(C)C(=O)C(C(c1ccccc1)N1CCOCC1)N1CCOCC1 (stereo not given) | > 100 µM (inactive) |  | > 100 µM (inactive) | > 100 µM (inactive) | > 100 µM (inactive) |  | > 100 µM | > 100 µM (inactive) | > 100 µM (inactive) | > 100 µM (inactive) | > 100 µM (inactive) | > 100 µM (inactive) | > 100 µM (inactive) | > 100 µM (inactive) | > 100 µM (inactive) | > 100 µM (inactive) | > 100 µM (inactive) |  | 
8 | CCOC1NC(/N=C/c2ccc(OC)cc2)=C(C#N)C1C#N (stereo not given) | 19.9 µM (inactive) | > 100 µM (inactive) | > 100 µM (inactive) | > 100 µM (inactive) | > 100 µM (inactive) | 93.8 µM (inactive) | 99.3 µM | 29.9 µM (inactive) | 97.5 µM (inactive) | > 100 µM (inactive) | > 100 µM (inactive) | 46.7 µM (inactive) | 65.5 µM (inactive) |  | 30 µM (inactive) | > 100 µM (inactive) | 49.2 µM (inactive) | 75.3 µM (inactive) | 37.5 µM (inactive)
